Consider 29 molecules from ChEMBL document CHEMBL1152321, “Recent advances in the chemistry and biology of new generation taxoids” (J Nat Prod, 2009).

Assay [1] has as its system MCF7. Put plainly: Cytotoxicity against P-glycoprotein deficient wild type human MCF7 cells after 72 hrs. It is filed as functional, cell-based. As to conditions: MCF7, 72 h.
In assay [2] the test system is MCF7. Put plainly: Resistance factor, ratio of IC50 for human MCF7 cells expressing P-glycoprotein to IC50 for P-glycoprotein deficient wild type human MCF7 cells. The format is functional.
Assay [3] concerns MCF7. Nature of the assay: Cytotoxicity against human MCF7 cells expressing P-glycoprotein after 72 hrs. The format is functional, cell-based. As to conditions: MCF7, 72 h.
The nature of assay [4]: Cytotoxicity against P-glycoprotein deficient wild type human LCC-6 cells after 72 hrs. It is filed as functional, cell-based. Particulars: LCC-6, 72 h.
Assay [5] in a line: Resistance factor, ratio of IC50 for human LCC-6 cells expressing P-glycoprotein to IC50 for P-glycoprotein deficient wild type human LCC-6 cells. It is filed as functional. More on the design: reference not given here.
Assay [6] has as its system HT-29. Nature of the assay: Cytotoxicity against human HT-29 cells after 72 hrs. It is filed as functional, cell-based. Particulars: HT-29, 72 h.

Take `COC(=O)O[C@H]1C(=O)[C@@]2(C)[C@H]([C@H](OC(=O)c3cccc(OC)c3)[C@]3(O)C[C@H](OC(=O)[C@H](O)[C@H](C=C(F)F)NC(=O)OC(C)(C)C)C(C)=C1C3(C)C)[C@]1(OC(C)=O)CO[C@@H]1C[C@@H]2O`: the IC50 in assay [1] was determined as 0.078 nM; in assay [3], 0.5 nM. The Ratio in assay [2] was 6.4.
Consider `CCC(=O)O[C@H]1C(=O)[C@@]2(C)[C@H]([C@H](OC(=O)c3cccc(F)c3)[C@]3(O)C[C@H](OC(=O)[C@H](O)[C@H](CC(C)C)NC(=O)OC(C)(C)C)C(C)=C1C3(C)C)[C@]1(OC(C)=O)CO[C@@H]1C[C@@H]2O`, for which the 50% inhibitory concentration (IC50) in assay [4] stood at 0.4 nM. For the same molecule, in assay [5], the Ratio is recorded as 6.
In assay [4], `COc1ccccc1C(=O)O[C@H]1C(=O)[C@@]2(C)[C@H]([C@H](OC(=O)c3ccccc3)[C@]3(O)C[C@H](OC(=O)[C@H](O)[C@H](C=C(C)C)NC(=O)OC(C)(C)C)C(C)=C1C3(C)C)[C@]1(OC(C)=O)CO[C@@H]1C[C@@H]2O` came in with an IC50 of 2.1 nM. Further, the Ratio in assay [5] is 2.7.
In assay [4], `CC(=O)O[C@@]12CO[C@@H]1C[C@H](O)[C@@]1(C)C(=O)[C@H](OC(=O)c3ccccc3)C3=C(C)[C@@H](OC(=O)[C@H](O)[C@H](C=C(C)C)NC(=O)OC(C)(C)C)C[C@@](O)([C@@H](OC(=O)c4ccccc4)[C@H]21)C3(C)C` returned a concentration for half-maximal inhibition (IC50) of 1.8 nM. The Ratio in assay [5] stood at 2.7.
In the same order, the values of `COc1cccc(CC(=O)O[C@H]2C(=O)[C@@]3(C)[C@H]([C@H](OC(=O)c4ccccc4)[C@]4(O)C[C@H](OC(=O)[C@H](O)[C@H](C=C(C)C)NC(=O)OC(C)(C)C)C(C)=C2C4(C)C)[C@]2(OC(C)=O)CO[C@@H]2C[C@@H]3O)c1` are 2.1 nM and 9.7.
In the same order, the values of `COc1cccc(CCC(=O)O[C@H]2C(=O)[C@@]3(C)[C@H]([C@H](OC(=O)c4ccccc4)[C@]4(O)C[C@H](OC(=O)[C@H](O)[C@H](C=C(C)C)NC(=O)OC(C)(C)C)C(C)=C2C4(C)C)[C@]2(OC(C)=O)CO[C@@H]2C[C@@H]3O)c1` are 3.7 nM and 1.8.
In the same order, the values of `CC(=O)O[C@@]12CO[C@@H]1C[C@H](O)[C@@]1(C)C(=O)[C@H](OC(=O)OCc3ccccc3)C3=C(C)[C@@H](OC(=O)[C@H](O)[C@H](C=C(C)C)NC(=O)OC(C)(C)C)C[C@@](O)([C@@H](OC(=O)c4ccccc4)[C@H]21)C3(C)C` are 1.8 nM and 9.3.
Take `COc1ccccc1CC(=O)O[C@H]1C(=O)[C@@]2(C)[C@H]([C@H](OC(=O)c3ccccc3)[C@]3(O)C[C@H](OC(=O)[C@H](O)[C@H](C=C(C)C)NC(=O)OC(C)(C)C)C(C)=C1C3(C)C)[C@]1(OC(C)=O)CO[C@@H]1C[C@@H]2O`: in assay [4], the 50% inhibitory concentration (IC50) stood at 2.3 nM. Also, in assay [5], the Ratio was 6.
`COc1cccc(C(=O)O[C@H]2[C@@H]3[C@]4(OC(C)=O)CO[C@@H]4C[C@H](O)[C@@]3(C)C(=O)[C@H](OC(=O)C3CC3)C3=C(C)[C@@H](OC(=O)[C@H](O)[C@H](C=C(F)F)NC(=O)OC(C)(C)C)C[C@]2(O)C3(C)C)c1`: the half-inhibitory concentration (IC50) in assay [1] was 0.092 nM; in assay [3], 0.48 nM. Further, in assay [2], the Ratio was found to be 5.2.
Molecule `C=Cc1cccc(C(=O)O[C@H]2[C@@H]3[C@]4(OC(C)=O)CO[C@@H]4C[C@H](O)[C@@]3(C)C(=O)[C@H](OC(=O)CC)C3=C(C)[C@@H](OC(=O)[C@H](O)[C@H](C=C(C)C)NC(=O)OC(C)(C)C)C[C@]2(O)C3(C)C)c1` yielded a half-inhibitory concentration (IC50) in assay [4] of 2.9 nM.
In turn, `CC(=O)O[C@@]12CO[C@@H]1C[C@H](O)[C@@]1(C)C(=O)[C@H](OC(=O)CCc3ccccc3)C3=C(C)[C@@H](OC(=O)[C@H](O)[C@H](C=C(C)C)NC(=O)OC(C)(C)C)C[C@@](O)([C@@H](OC(=O)c4ccccc4)[C@H]21)C3(C)C` showed an IC50 in assay [4] of 5.1 nM. In addition, in assay [5], the Ratio stood at 6.1.
Turning to `CCC(=O)O[C@H]1C(=O)[C@@]2(C)[C@H]([C@H](OC(=O)c3cccc(Cl)c3)[C@]3(O)C[C@H](OC(=O)[C@H](O)[C@H](C=C(C)C)NC(=O)OC(C)(C)C)C(C)=C1C3(C)C)[C@]1(OC(C)=O)CO[C@@H]1C[C@@H]2O`, half-maximal inhibition in assay [4] (IC50) required 0.8 nM.
On the same count and under the same terms, to `C/C=C/[C@H](NC(=O)OC(C)(C)C)[C@@H](O)C(=O)O[C@H]1C[C@@]2(O)[C@@H](OC(=O)c3cccc(OC)c3)[C@@H]3[C@]4(OC(C)=O)CO[C@@H]4C[C@H](O)[C@@]3(C)C(=O)[C@H](OC(=O)CC)C(=C1C)C2(C)C` belongs 1.2 nM; to `CCC(=O)O[C@H]1C(=O)[C@@]2(C)[C@H]([C@H](OC(=O)c3cccc(N=[N+]=[N-])c3)[C@]3(O)C[C@H](OC(=O)[C@H](O)[C@H](CC(C)C)NC(=O)OC(C)(C)C)C(C)=C1C3(C)C)[C@]1(OC(C)=O)CO[C@@H]1C[C@@H]2O`, 1.1 nM.
On to `CC(=O)O[C@@]12CO[C@@H]1C[C@H](O)[C@@]1(C)C(=O)[C@H](OC(=O)C3CC3)C3=C(C)[C@@H](OC(=O)[C@H](O)[C@H](C=C(F)F)NC(=O)OC(C)(C)C)C[C@@](O)([C@@H](OC(=O)c4cccc(N=[N+]=[N-])c4)[C@H]21)C3(C)C`, for which the half-inhibitory concentration (IC50) was found to be 0.092 nM in assay [1] and 0.45 nM in assay [3]. For the same molecule, the Ratio in assay [2] is 4.9.
With `CC(=O)O[C@H]1C(=O)[C@@]2(C)[C@H]([C@H](OC(=O)c3cccc(C)c3)[C@]3(O)C[C@H](OC(=O)[C@H](O)[C@H](C=C(C)C)NC(=O)OC(C)(C)C)C(C)=C1C3(C)C)[C@]1(OC(C)=O)CO[C@@H]1C[C@@H]2O`, the IC50 in assay [4] is 1.5 nM.
On the same count and under the same terms, to `CCC(=O)O[C@H]1C(=O)[C@@]2(C)[C@H]([C@H](OC(=O)c3cccc(OC)c3)[C@]3(O)C[C@H](OC(=O)[C@H](O)[C@@H](NC(=O)OC(C)(C)C)[C@H]4CC4(C)C)C(C)=C1C3(C)C)[C@]1(OC(C)=O)CO[C@@H]1C[C@@H]2O` belongs 0.48 nM.
With `COc1ccc(C(=O)O[C@H]2C(=O)[C@@]3(C)[C@H]([C@H](OC(=O)c4ccccc4)[C@]4(O)C[C@H](OC(=O)[C@H](O)[C@H](C=C(C)C)NC(=O)OC(C)(C)C)C(C)=C2C4(C)C)[C@]2(OC(C)=O)CO[C@@H]2C[C@@H]3O)cc1`, it took 3.8 nM to reach half-maximal inhibition in assay [4] (IC50). In addition, the Ratio in assay [5] turned out to be 1.2.
In assay [4], `CC(=O)O[C@@]12CO[C@@H]1C[C@H](O)[C@@]1(C)C(=O)[C@H](OC(=O)c3ccc4ccccc4c3)C3=C(C)[C@@H](OC(=O)[C@H](O)[C@H](C=C(C)C)NC(=O)OC(C)(C)C)C[C@@](O)([C@@H](OC(=O)c4ccccc4)[C@H]21)C3(C)C` came in with a half-inhibitory concentration (IC50) of 6.3 nM. Moreover, in assay [5], the Ratio came to 2.4.
On to `CC(=O)O[C@H]1C(=O)[C@@]2(C)[C@H]([C@H](OC(=O)c3cccc(N=[N+]=[N-])c3)[C@]3(O)C[C@H](OC(=O)[C@H](O)[C@H](C=C(F)F)NC(=O)OC(C)(C)C)C(C)=C1C3(C)C)[C@]1(OC(C)=O)CO[C@@H]1C[C@@H]2O`, for which the values for the IC50 in assay [1] and in assay [3] were 0.092 nM and 0.34 nM, respectively. Besides, in assay [2], the Ratio was 3.7.
In assay [4], `COc1cccc(C(=O)O[C@H]2[C@@H]3[C@]4(OC(C)=O)CO[C@@H]4C[C@H](O)[C@@]3(C)C(=O)[C@H](OC(=O)C3CC3)C3=C(C)[C@@H](OC(=O)[C@H](O)[C@H](C=C(C)C)NC(=O)OC(C)(C)C)C[C@]2(O)C3(C)C)c1` had an IC50 of 1 nM. For the same molecule, the Ratio in assay [5] was 2.9.
In the same order, the values of `COc1cccc(C(=O)O[C@H]2C(=O)[C@@]3(C)[C@H]([C@H](OC(=O)c4ccccc4)[C@]4(O)C[C@H](OC(=O)[C@H](O)[C@H](C=C(C)C)NC(=O)OC(C)(C)C)C(C)=C2C4(C)C)[C@]2(OC(C)=O)CO[C@@H]2C[C@@H]3O)c1` are 2.8 nM and 1.8.
In turn, `COc1ccc(CCC(=O)O[C@H]2C(=O)[C@@]3(C)[C@H]([C@H](OC(=O)c4ccccc4)[C@]4(O)C[C@H](OC(=O)[C@H](O)[C@H](C=C(C)C)NC(=O)OC(C)(C)C)C(C)=C2C4(C)C)[C@]2(OC(C)=O)CO[C@@H]2C[C@@H]3O)cc1` yielded a concentration for half-maximal inhibition (IC50) in assay [4] of 1.7 nM. In assay [5], the Ratio is 2.9.
In the same order, the values of `CC(=O)O[C@@]12CO[C@@H]1C[C@H](O)[C@@]1(C)C(=O)[C@H](OC(=O)c3cccc4ccccc34)C3=C(C)[C@@H](OC(=O)[C@H](O)[C@H](C=C(C)C)NC(=O)OC(C)(C)C)C[C@@](O)([C@@H](OC(=O)c4ccccc4)[C@H]21)C3(C)C` are 5.3 nM and 2.9.
In the same order, the values of `COc1ccccc1CCC(=O)O[C@H]1C(=O)[C@@]2(C)[C@H]([C@H](OC(=O)c3ccccc3)[C@]3(O)C[C@H](OC(=O)[C@H](O)[C@H](C=C(C)C)NC(=O)OC(C)(C)C)C(C)=C1C3(C)C)[C@]1(OC(C)=O)CO[C@@H]1C[C@@H]2O` are 1.5 nM and 3.3.
With `CC(=O)O[C@@]12CO[C@@H]1C[C@H](O)[C@@]1(C)C(=O)[C@H](O)C3=C(C)[C@@H](OC(=O)[C@H](O)[C@@H](NC(=O)OC(C)(C)C)c4ccccc4)C[C@@](O)([C@@H](OC(=O)c4ccccc4)[C@H]21)C3(C)C.O.O.O` [DOCETAXEL], the IC50 was 1 nM in assay [6], 1 nM in assay [4] and 215 nM in assay [3].
Molecule `CCC(=O)O[C@H]1C(=O)[C@@]2(C)[C@H]([C@H](OC(=O)c3cccc(F)c3)[C@]3(O)C[C@H](OC(=O)[C@H](O)[C@H](C=C(C)C)NC(=O)OC(C)(C)C)C(C)=C1C3(C)C)[C@]1(OC(C)=O)CO[C@@H]1C[C@@H]2O` returned a concentration for half-maximal inhibition (IC50) in assay [4] of 0.5 nM.
Still for that read-out and setting: to `COc1cccc(C(=O)O[C@H]2[C@@H]3[C@]4(OC(C)=O)CO[C@@H]4C[C@H](O)[C@@]3(C)C(=O)[C@H](OC(C)=O)C3=C(C)[C@@H](OC(=O)[C@H](O)[C@H](C=C(C)C)NC(=O)OC(C)(C)C)C[C@]2(O)C3(C)C)c1` belongs 0.6 nM.
Take `CCC(=O)O[C@H]1C(=O)[C@@]2(C)[C@H]([C@H](OC(=O)c3cccc(N=[N+]=[N-])c3)[C@]3(O)C[C@H](OC(=O)[C@H](O)[C@H](C=C(C)C)NC(=O)OC(C)(C)C)C(C)=C1C3(C)C)[C@]1(OC(C)=O)CO[C@@H]1C[C@@H]2O`: the 50% inhibitory concentration (IC50) in assay [4] is 0.9 nM.

As a reminder, the IC50 is the concentration at which inhibition is half-maximal.
